Laboratory results from patent publication US10695406B2, “Modulation of cellular stress using a B-cell oxidative and/or endoplasmic reticulum stress inhibitor and a targeting agent” (THE UNIVERSITY OF QUEENSLAND, priority 2014, dated 2020).

Tests used:
[1] = system: MIN6N8 cells; test: ROS and NO (DHE, DCFDA, Griess assay) in MIN6N8 cells; format: cell-based, murine; conditions: for IL-23 induced oxidation of dihydroethidium (DHE): 50 ng/mL
Procedure: Activation of ATF6 was assessed as follows: the area in pixels per square millimeter co-stained ATF6 and DAPI (blue and green), and total ATF6 staining (green) was determined in 5 fields of view for each section (n=6 for each condition) using IMAGEJ software version 1.45s. Data are presented as the percentage of ATF6 and DAPI co-fluorescence to the total ATF6 fluorescence. Phosphorylation of Ser-51 of eiF2 α was determined by an AlphaScreen assay as per the manufacturer's instructions (PERKIN-ELMER). The Griess reagent method was performed according to the manufacturer's instructions (MOLECULAR PROBES) to assess the intracellular levels of nitric oxide. 5-(and -6-)-carboxy-2,7-dichlorofluorescein diacetate (DCFDA) assay was used to determine the intracellular levels of H2O2 as previously described (Sakon et al., 2003). Cells were treated with glucose or recombinant cytokines at the concentrations indicated in the figure legends, or with 5 μM thapsigargin (SIGMA-ALDRICH) or 10 μg/mL tunicamycin (SIGMA-ALDRICH) or 0.1-0.5 mM Palmitate (SIGMA-ALDRICH) for the times indicated in the legends. ROS was […] using the dihydroethidium (DHE) fluorescent cell-permeable probe (SIGMA-ALDRICH). MIN6N8 cells plated at 2×10^6/mL were incubated with 3 μM DHE and subsequently treated with DMSO (control), 50 ng/mL IL-23 for 30 minutes±[…] IL-22 at the same time or 30 minutes prior to IL-23.
To determine whether IL-22 was sufficient to prevent the increase in oxidative stress caused by known stressors, for example dihydroethidium (DHE), MIN6N8 cells were exposed to 50 ng/mL IL-23 for 30 minutes±50 ng/mL IL-22 at the same time, or 30 minutes prior to the IL-23 treatment. Superoxide generation was measured using DHE, which fluoresces red and binds DNA after oxidation. Time-lapse imaging (3 frames/min for 30 minutes) was utilized to determine the formation of superoxide (DHE-conversion/fluorescence) in cells after treatment. DAPI fluorescence was captured to visualize nuclei.
The concentration of ROS and NO in MIN6N8 cells treated with 16.6 mM glucose (high glucose), 10 μM H2O2, 0.5 mM palmitic acid or 50 ng/mL cytokines±50 ng/mL IL-22 either at the same time, or 30 minutes prior to the stressor treatment.

[2] = system: 3T3 adipocytes; test: 6-NBDG glucose uptake by 3T3 adipocytes with insulin secreted by islets; format: cell-based; conditions: insulin secreted by islets from HFD mice treated with 100 ng/g
Procedure: 3T3 cells were differentiated into adipocytes as previously described, and all experiments were carried out on day 8 post differentiation. 1×10^4 cells were seeded in a black 96-well plate and cultured in serum free 2.8 mM glucose media prior to the addition of insulin. Cells were treated for 1 h with 2 ng/mL recombinant insulin or total insulin from islet secretions at 37° C. as described in figure legends. Subsequently, cells were incubated with 6-(N-(7-nitrobenx-2-oxa-1,3-diazol-4-yl)amino)-6-deoxyglucose (6-NBDG) (MOLECULAR PROBES) for 20 min before cells were washed with PBS and glucose uptake was determined using a POLARstar Omega plate reader.

[3] = system: pneumovirus of mice (PVM); test: Pneumovirus (PVM) infection of neonatal mice with IL-22 administration; format: in vivo, C57BL/6 mice
Procedure: Total RNA was extracted from animal tissues by homogenizing in TRIzol and separated via chloroform phase separation. RNA was purified using High Pure RNA isolation kit (ROCHE) as per the manufacturer's instructions, including DNASE treatment. Extraction purity was assessed by NANODROP, ensuring the expected A260/280 value for RNA between 1.8 and 2.0. Reverse transcription was performed on 1 μg of RNA using 5×ISCRIPT reaction mix and ISCRIPT reverse transcriptase (BIORAD). Quantitative, reverse transcription polymerase chain reaction (qRT-PCR) was performed to quantify expression of PVM gene Src homology (SH), using specific exon-spanning primer sequences and amplified with SYBR Premix Ex TAQ II polymerase (TAKARA). All gene expression was quantified in duplicate using a Viia 7 Real Time PCR System (APPLIED BIOSYSTEMS) and relative fold changes were calculated using the 2^−ΔΔCt method, comparing to the mean of naïve uninfected mice after normalizing to the β-actin housekeeping gene ACTB.
Five-day old neonatal C57BL/6 mice were administered intraperitoneal (i.p.) injections of either recombinant mouse IL-22 (rmIL-22) (20 ng/g every three days) [R&D Systems, #582-ML/CF], or an irrelevant IgG1 mock treatment control (12.5 μg/mouse, weekly) [Lilly Pharmaceuticals, LSN2404993]. […]
Paraffin embedded left lobes were sectioned onto Superfrost plus slides. […] This scoring system assessed inflammation in the small airspaces, peribronchiolar interstitial, alveolar interstitial and injury in the airway epithelium. The degree of lung injury and inflammation was scored blindly.
Cells infected by PVM were visualized by immunohistochemistry using rabbit anti-mouse PVM antibody (polyclonal at 1:8000) (ALPHA DIAGNOSTIC, PVMNP14-S). […] PVM infection was quantified by counting number of infected cells in 4-5 bronchioles per mouse and expressed as the number of infected cells per length of bronchiole epithelium. All sections were visualized on a VS120-L100 slide scanner microscope (OLYMPUS) and analyzed using OlyVIA v2.4 (OLYMPUS) and IMAGEJ v1.45s.

For “IL-22: interleukin-22; recombinant murine IL-22 (R&D SYSTEMS) in the mouse experiments”, the “IL-23 induced oxidation of dihydroethidium (DHE)” value ([1]; 30-minute pre-exposure) was “completely prevented DHE oxidation”, the “IL-23 induced oxidation of dihydroethidium (DHE)” value ([1]; concomitant exposure) was “reduced the degree of oxidation and the number of cells affected” and the “basal NO production” value ([1]; unstressed cells) was “decreased basal NO production”. For the same substance, the “production/accumulation of ROS and NO” value ([1]; β-cells exposed to inflammatory cytokines, FFA, tunicamycin or H2O2) was “represses the production/accumulation of ROS and NO”, the “reduction in adipocyte 6-NBDG uptake vs insulin from islets of normal chow fed mice” value [2] was 11% and the “mice that died between days 5 and 6 post infection” value ([3]; 20 ng/g i.p. every three days, 100 PFU PVM) was 7/9. For the same substance, the “increase of PVM gene expression (PCR)” value ([3]; 5 days post infection) was 2.2 fold and the “lung injury score, times higher” value ([3]; 5 days post infection) was 1.7 times.
